Experimental data: DBAASP
Values after ≈ are worked out from the molar mass of the structure shown. Blank lines part the entries; values can stand above or below the molecule they belong to.

Columns and labels:
Experiment in all cases: ≥ marks a high value that may be exact or a test limit, other limits are often not marked, values filed in µg/mL are converted to µM
[1] = test system: Bacillus subtilis
[2] = test system: Candida albicans ATCC 2002
[3] = test system: Escherichia coli ML-35p
[4] = test system: Pseudomonas aeruginosa ATCC 27853
[5] = test system: Pseudomonas aeruginosa PAO1
[6] = test system: Staphylococcus aureus ATCC 2592
[7] = test system: Staphylococcus aureus ATCC 43300
[8] = test system: Candida albicans NCPF 1467
[9] = test system: Escherichia coli NCTC 10418
[10] = test system: Staphylococcus aureus NCTC 10788
[11] = test system: Bacillus subtilis 168
[12] = test system: Escherichia coli B
[13] = test system: Pseudomonas aeruginosa
[14] = test system: Staphylococcus aureus
[15] = test system: Corynebacterium glutamicum ATCC 13032
[16] = test system: Escherichia coli ATCC 25922
[17] = test system: Staphylococcus aureus ATCC 9144
[18] = test system: Streptococcus mutans
[19] = test system: Escherichia coli BW25113

MIC [1]: 7.71 µM (≈ 15 µg/mL) | MIC [2]: 2.57 µM (≈ 5 µg/mL) | MIC [3]: 15.4 µM (≈ 30 µg/mL) | MIC [4]: 1.28 µM (≈ 2.5 µg/mL) | MIC [5]: 1.28 µM (≈ 2.5 µg/mL) | MIC [6]: 1.28 µM (≈ 2.5 µg/mL) | MIC [7]: 1.28 µM (≈ 2.5 µg/mL)
SMILES: CSCC[C@H](NC(=O)[C@H](CO)NC(=O)[C@H](CO)NC(=O)[C@H](CC(C)C)NC(=O)[C@H](C)NC(=O)CNC(=O)[C@H](Cc1ccccc1)NC(=O)[C@H](CC(C)C)NC(=O)[C@H](CC(C)C)NC(=O)[C@@H]1CCCN1C(=O)[C@H](Cc1ccccc1)NC(=O)[C@@H](N)Cc1ccccc1)C(=O)N[C@@H](CCSC)C(=O)N1CCC[C@H]1C(=O)N[C@@H](CCCCN)C(=O)N[C@@H](CC(C)C)C(=O)N[C@@H](Cc1ccccc1)C(N)=O [FFPLLFGALSSMMPKLF]

MIC [8]: 1.83 µM (≈ 4 µg/mL) | MIC [9]: 7.33 µM (≈ 16 µg/mL) | MIC [10]: 1.83 µM (≈ 4 µg/mL)
SMILES: CC[C@H](C)[C@H](NC(=O)[C@H](C)NC(=O)[C@H](CCCCN)NC(=O)[C@@H]1CCCN1C(=O)[C@@H](NC(=O)[C@H](CC(C)C)NC(=O)[C@H](CCCCN)NC(=O)[C@H](Cc1ccccc1)NC(=O)[C@H](CC(C)C)NC(=O)[C@@H](N)Cc1ccccc1)[C@@H](C)CC)C(=O)N[C@@H](CCCCN)C(=O)NCC(=O)N[C@@H](CC(C)C)C(=O)N[C@H](C(=O)N[C@@H](CCCCN)C(=O)N[C@@H](C)C(=O)N[C@H](C(=O)N[C@@H](CCCN=C(N)N)C(=O)N[C@@H](CCCCN)C(N)=O)[C@@H](C)CC)C(C)C [FLFKLIPKAIKGLVKAIRK]

MIC [8]: 3.14 µM (≈ 8 µg/mL) | MIC [9]: 25.1 µM (≈ 64 µg/mL) | MIC [10]: 6.28 µM (≈ 16 µg/mL)
SMILES: CC[C@H](C)[C@H](NC(=O)[C@H](C)NC(=O)[C@@H]1CCCN1C(=O)[C@H](CC(C)C)NC(=O)[C@@H](N)Cc1ccccc1)C(=O)N[C@@H](C)C(=O)NCC(=O)N[C@H](C(=O)N[C@@H](C)C(=O)N[C@@H](C)C(=O)N[C@@H](CCCCN)C(=O)N[C@@H](Cc1ccccc1)C(=O)N[C@@H](CC(C)C)C(=O)N1CCC[C@H]1C(=O)N[C@@H](CCCCN)C(=O)N[C@H](C(=O)N[C@@H](Cc1ccccc1)C(=O)N[C@H]1CSSC[C@@H](C(=O)O)NC(=O)[C@H](CCCCN)NC(=O)[C@H](CCCCN)NC(=O)[C@H]([C@@H](C)O)NC(=O)[C@H]([C@@H](C)CC)NC(=O)[C@H](C)NC1=O)[C@@H](C)CC)C(C)C [FLPAIAGVAAKFLPKIFCAITKKC]

MIC [8]: 2.5 µM (≈ 4.97 µg/mL) | MIC [9]: 5 µM (≈ 9.93 µg/mL) | MIC [10]: 2.5 µM (≈ 4.97 µg/mL)
SMILES: CC[C@H](C)[C@H](NC(=O)[C@H](CCCCN)NC(=O)[C@H](CCCCN)NC(=O)[C@@H](NC(=O)[C@H](CC(C)C)NC(=O)[C@H](CCCCN)NC(=O)[C@@H]1CCCN1C(=O)[C@@H](NC(=O)[C@H](CC(C)C)NC(=O)[C@H](CO)NC(=O)[C@H](CC(C)C)NC(=O)[C@@H](N)Cc1ccccc1)[C@@H](C)CC)C(C)C)C(=O)N[C@H](C(=O)N[C@@H](CCCCN)C(=O)N[C@@H](C)C(=O)N[C@@H](Cc1ccccc1)C(=O)N[C@@H](CCCCN)C(=O)O)[C@@H](C)CC [FLSLIPKLVKKIIKAFK]

MIC [11]: 2.9 µM (≈ 3.24 µg/mL) | MIC [12]: 9.1 µM (≈ 10.2 µg/mL) | MIC [13]: 59 µM (≈ 65.9 µg/mL) | MIC [14]: 10.9 µM (≈ 12.2 µg/mL)
SMILES: CC[C@H](C)[C@H](NC(=O)[C@H](CO)NC(=O)[C@H](CC(C)C)NC(=O)[C@H](Cc1ccccc1)NC(=O)CN)C(=O)N[C@@H](CC(C)C)C(=O)N[C@@H](CCCCN)C(=O)N[C@@H](CCCCN)C(=O)N[C@H](C(=O)N[C@@H](CC(C)C)C(N)=O)C(C)C [GFLSILKKVL]

MIC [15]: 1.6 µM (≈ 2.44 µg/mL) | MIC [16]: 6.3 µM (≈ 9.63 µg/mL) | MIC [4]: 6.3 µM (≈ 9.63 µg/mL) | MIC [17]: ≥ 50 µM
SMILES: CC(C)[C@H](NC(=O)[C@H](CCCCN)NC(=O)[C@H](C)NC(=O)[C@@H](NC(=O)[C@@H](NC(=O)[C@H](CCCN=C(N)N)NC(=O)[C@H](CCCN=C(N)N)NC(=O)[C@H](Cc1c[nH]c2ccccc12)NC(=O)[C@H](Cc1c[nH]c2ccccc12)NC(=O)CN)[C@@H](C)O)C(C)C)C(=O)N[C@@H](CCCN=C(N)N)C(=O)N[C@@H](CC(N)=O)C(N)=O [GWWRRTVAKVRN]

MIC [18]: ≥ 40.1 µM
SMILES: CC(C)C[C@H](NC(=O)[C@H](Cc1cnc[nH]1)NC(=O)[C@H](CCCCN)NC(=O)[C@H](Cc1c[nH]c2ccccc12)NC(=O)[C@H](CCCN=C(N)N)NC(=O)[C@H](CCCCN)NC(=O)[C@H](Cc1ccccc1)NC(=O)[C@H](CC(C)C)NC(=O)[C@@H](N)CCCCN)C(=O)N[C@@H](Cc1ccccc1)C(=O)N[C@@H](CCCN=C(N)N)C(=O)O [KLFKRWKHLFR]

MIC [19]: ≥ 32 µM
SMILES: CC[C@H](C)[C@H](NC(=O)[C@@H]1CCCN1C(=O)[C@@H]1CCCN1C(=O)[C@H](CCCN=C(N)N)NC(=O)[C@H](Cc1ccccc1)NC(=O)[C@@H](N)CCCN=C(N)N)C(=O)N[C@@H](CCCN=C(N)N)C(=O)N[C@@H](CCCN=C(N)N)C(=O)N1CCC[C@H]1C(=O)N1CCC[C@H]1C(=O)N[C@H](C(=O)N[C@@H](CCCN=C(N)N)C(=O)N1CCC[C@H]1C(=O)N1CCC[C@H]1C(=O)N[C@@H](Cc1c[nH]c2ccccc12)C(=O)N[C@@H](Cc1ccc(O)cc1)C(=O)N1CCC[C@H]1C(=O)O)[C@@H](C)CC [RFRPPIRRPPIRPPWYP]

MIC [19]: 8 µM (≈ 18 µg/mL)
SMILES: CC[C@H](C)[C@H](NC(=O)[C@@H]1CCCN1C(=O)[C@H](Cc1c[nH]c2ccccc12)NC(=O)[C@H](CCCN=C(N)N)NC(=O)[C@H](Cc1ccccc1)NC(=O)[C@@H](N)CCCN=C(N)N)C(=O)N[C@@H](CCCN=C(N)N)C(=O)N[C@@H](CCCN=C(N)N)C(=O)N1CCC[C@H]1C(=O)N1CCC[C@H]1C(=O)N[C@H](C(=O)N[C@@H](CCCN=C(N)N)C(=O)N1CCC[C@H]1C(=O)N1CCC[C@H]1C(=O)N[C@@H](Cc1ccccc1)C(=O)N[C@@H](Cc1ccc(O)cc1)C(=O)N1CCC[C@H]1C(=O)O)[C@@H](C)CC [RFRWPIRRPPIRPPFYP]

MIC [19]: 16 µM (≈ 37.6 µg/mL)
SMILES: CC[C@H](C)[C@H](NC(=O)[C@@H]1CCCN1C(=O)[C@H](CCCN=C(N)N)NC(=O)[C@H](CCCN=C(N)N)NC(=O)[C@H](CCCN=C(N)N)NC(=O)[C@@H](N)CCCN=C(N)N)C(=O)N[C@@H](CCCN=C(N)N)C(=O)N[C@@H](CCCN=C(N)N)C(=O)N[C@@H](CCCN=C(N)N)C(=O)N1CCC[C@H]1C(=O)N[C@H](C(=O)N[C@@H](CCCN=C(N)N)C(=O)N1CCC[C@H]1C(=O)N1CCC[C@H]1C(=O)N[C@@H](Cc1ccccc1)C(=O)N[C@@H](Cc1ccc(O)cc1)C(=O)N[C@@H](CCCN=C(N)N)C(=O)O)[C@@H](C)CC [RRRRPIRRRPIRPPFYR]

MIC [18]: 6.3 µM (≈ 16 µg/mL)
SMILES: NC(=O)[C@H](Cc1ccccc1)NC(=O)[C@H](Cc1c[nH]c2ccccc12)NC(=O)[C@H](Cc1c[nH]c2ccccc12)NC(=O)[C@H](Cc1c[nH]c2ccccc12)NC(=O)[C@H](CCCN=C(N)N)NC(=O)[C@H](CCCN=C(N)N)NC(=O)[C@H](CCCN=C(N)N)NC(=O)CNC(=O)CNC(=O)CNC(=O)[C@H](Cc1ccccc1)NC(=O)[C@H](Cc1c[nH]c2ccccc12)NC(=O)[C@H](Cc1c[nH]c2ccccc12)NC(=O)[C@H](Cc1c[nH]c2ccccc12)NC(=O)[C@H](CCCN=C(N)N)NC(=O)[C@H](CCCN=C(N)N)NC(=O)[C@@H](N)CCCN=C(N)N [RRRWWWFGGGRRRWWWF]

MIC [19]: 8 µM (≈ 19.3 µg/mL)
SMILES: CC[C@H](C)[C@H](NC(=O)[C@@H]1CCCN1C(=O)[C@H](CCCN=C(N)N)NC(=O)[C@H](CCCN=C(N)N)NC(=O)[C@H](Cc1c[nH]c2ccccc12)NC(=O)[C@@H](N)CCCN=C(N)N)C(=O)N[C@@H](CCCN=C(N)N)C(=O)N[C@@H](CCCN=C(N)N)C(=O)N[C@@H](CCCN=C(N)N)C(=O)N1CCC[C@H]1C(=O)N[C@H](C(=O)N[C@@H](CCCN=C(N)N)C(=O)N1CCC[C@H]1C(=O)N1CCC[C@H]1C(=O)N[C@@H](Cc1c[nH]c2ccccc12)C(=O)N[C@@H](Cc1ccc(O)cc1)C(=O)N[C@@H](CCCN=C(N)N)C(=O)O)[C@@H](C)CC [RWRRPIRRRPIRPPWYR]

MIC [18]: 27.3 µM (≈ 32 µg/mL)
SMILES: NCCCC[C@H](NC(=O)[C@H](Cc1c[nH]c2ccccc12)NC(=O)[C@H](CCCN=C(N)N)NC(=O)[C@H](Cc1c[nH]c2ccccc12)NC(=O)[C@H](CCCN=C(N)N)NC(=O)[C@H](Cc1c[nH]c2ccccc12)NC(=O)[C@@H](N)CCCN=C(N)N)C(=O)O [RWRWRWK]
